{"source": "patent US20150099012A1", "about": "“METHODS FOR ACTIVATING RETROVIRUS IN LATENT INFECTED CELLS, AND COMPOUNDS FOR USE THEREIN” (Erasmus University Medical Center Rotterdam, priority 2012, published 2015)", "key": {"[1]": {"system": "latent HIV LTR", "assay": "Activation of latent HIV LTR in J-Lat/S-Lat latently infected cell lines (GFP reporter, FACS)", "format": "cell-based, HIV-1", "conditions": "single agents; J-Lat/S-Lat or 1G5 cells; FIG. 5", "description": "A) S-Lat 46, J-Lat P32, J-Lat A2, J-Lat 11.1, S-Lat 24, S-Lat 9 and […], and GFP expression was monitored by FACS analysis to determine activation of the latent LTR. B) J-Lat P32 and (C) S-Lat 30 Jurkats and SupT1 cell lines harbouring latently infected HIV were either untreated or treated with 2, 5 or 10 mM LiCl as indicated. Expression of HIV-LTR driven P24 and GFP, and endogenous Wnt target genes AXIN2, MMP9, TCF1, as well as control GAPDH and NFkB target genes TLR2 and ICAM1 was monitored by qRT-PCR 72 hours after treatment. Expression data are presented as fold induction normalized to Cyclophillin A control.\nExpression data are presented as fold induction normalized to Cyclophillin A control."}, "[2]": {"system": "b-catenin recruitment to HIV LTR", "assay": "b-catenin ChIP at the HIV LTR in J-Lat cells", "format": "cell-based", "conditions": "latent J-Lat cells; FIG. 4D", "description": "(§1) (A) Schematic representation of strategy to explore nucleosome position changes and enrichment of LEF/b-catenin at the HIV LTR in its repressed state and after Wnt activation. Jurkat latent cells at 0, and 12 hours after stimulation with LiCl, BIO VPA, or LiCl and VPA together were crosslinked and sonicated to yield DNA fragments of approximately 150 bp. DNA accessibility was monitored by formaldehyde-assisted isolation of regulatory elements (FAIRE) while nucleosome occupancy was determined by histone H2B Chromatin immunoprecipitations (ChIPs). To determine enrichment of LEF, b-catenin, or Histone Acetyl H3, we performed ChIPs with antibodies specific for LEF1, b-catenin, Ac H3. (B) Wnt activation by treatment with LiCl/BIO is accompanied by an increase in DNA accessibility over the DHS1 of the HIV LTR. […] FAIRE results are presented as fold change respective to the unstimulated value (normalized to 1) for each primer pair. (D) b-catenin while absent from the LTR in the repressed state, directly binds to the LTR upon LiCl/BIO activation. LEF1 binding, while present on the LTR in the repressed state is enriched upon LiCl/BIO treatment. […] Immunoprecipitated DNA from ChIPs and phenol:chloroform extracted DNA from FAIRE were analyzed by qPCR using primer pairs specific for the HIV LTR nuc-0, DHS1, nuc-1, and nuc-2 regions, and control region amplifying upstream of the Axin2 gene. […]"}, "[3]": {"system": "LEF1 binding at HIV LTR", "assay": "LEF1 ChIP at the HIV LTR in J-Lat cells", "format": "cell-based", "conditions": "latent J-Lat cells; FIG. 4D", "description": "as §1"}, "[4]": {"system": "histone acetylation on the HIV LTR", "assay": "Histone Acetyl H3 ChIP at the HIV LTR in J-Lat cells", "format": "cell-based", "conditions": "latent J-Lat cells; FIG. 4D", "description": "as §1"}, "[5]": {"system": "HIV LTR DHS1 and nuc-1", "assay": "FAIRE DNA accessibility at the HIV LTR", "format": "cell-based", "conditions": "latent J-Lat cells, 12 hours after stimulation; FIG. 4B", "description": "as §1"}, "[6]": {"system": "HIV LTR DHS1 and nuc-1", "assay": "Histone H2B ChIP nucleosome occupancy at the HIV LTR", "format": "cell-based", "conditions": "latent J-Lat cells, 12 hours after stimulation; FIG. 4C", "description": "as §1"}}, "note": "“Also recorded” adds a separate entry of the source.", "data": [{"smiles": "O=C1Nc2cc(Br)ccc2/C1=C1/Nc2ccccc2/C1=N\\O", "note": "[BIO, (2′Z,3′E)-6-Bromoindirubin-3′-oxime]", "values": [{"measurement": "de-repression / activation of latent HIV LTR", "setting": "[1]", "value": "de-repression of latent HIV LTR; also recorded: activates the LTR in latently HIV infected cells"}, {"measurement": "recruitment of b-catenin to the HIV LTR (ChIP)", "setting": "[2]", "value": "recruitment of b-catenin to LTR DHS1 and nuc-1"}, {"measurement": "enrichment of LEF1 at the HIV LTR (ChIP)", "setting": "[3]", "value": "enrichment of LEF1 at the HIV LTR"}, {"measurement": "histone acetylation on the LTR (Ac H3 ChIP)", "setting": "[4]", "value": "histone acetylation is increased on the LTR"}, {"measurement": "DNA accessibility at the HIV LTR (FAIRE)", "setting": "[5]", "value": "increase accessibility"}, {"measurement": "nucleosome occupancy / histone density at the HIV LTR (H2B ChIP)", "setting": "[6]", "value": "decreased nucleosome occupancy at DHS1"}]}]}
